Results reported in ChEMBL document CHEMBL4419178, “Yap1 inhibitors that target the interaction of yap1 with oct4” (2018).
Values belong to the molecule of their own block, whether it stands above or below them. The source made the active and inactive calls. The calls are words filed in the database; no cut-off is given here.

Tests used:
NCI-H1650 = experiment: Inhibition of self-renewal capacity in cisplatin insensitive stem-like side-population cells of human NCI-H1650 cells assessed as reduction in number of spheres at 2 uM incubated for 5 days after 7 days cisplatin exposure by sphere formation assay; format: functional, cell-based
[1] = biological target: Transcriptional coactivator YAP1 (Homo sapiens) (UniProt P46937); experiment: Inhibition of YAP1 in human NCI-H1650 cells assessed as suppression of HK2 mRNA expression at 5 to 10 uM incubated for 72 hrs by RT-PCR method; format: cell-based
[2] = biological target: Transcriptional coactivator YAP1 (Homo sapiens) (UniProt P46937); experiment: Inhibition of YAP1 in human NCI-H1650 cells assessed as suppression of PDK2 mRNA expression at 5 to 10 uM incubated for 72 hrs by RT-PCR method; format: cell-based
[3] = biological target: Transcriptional coactivator YAP1 (Homo sapiens) (UniProt P46937); experiment: Inhibition of YAP1 in human NCI-H1703 cells assessed as suppression of HK2 mRNA expression at 5 to 10 uM incubated for 72 hrs by RT-PCR method; format: cell-based
[4] = biological target: Transcriptional coactivator YAP1 (Homo sapiens) (UniProt P46937); experiment: Inhibition of YAP1 in human NCI-H1703 cells assessed as suppression of PDK2 mRNA expression at 5 to 10 uM incubated for 72 hrs by RT-PCR method; format: cell-based
[5] = biological target: Transcriptional coactivator YAP1 (Homo sapiens) (UniProt P46937); experiment: Inhibition of YAP1 in human NCI-H146 cells assessed as suppression of HK2 mRNA expression at 5 to 10 uM incubated for 72 hrs by RT-PCR method; format: cell-based
[6] = biological target: Transcriptional coactivator YAP1 (Homo sapiens) (UniProt P46937); experiment: Inhibition of YAP1 in human NCI-H146 cells assessed as suppression of PDK2 mRNA expression at 5 to 10 uM incubated for 72 hrs by RT-PCR method; format: cell-based
[7] = biological target: Transcriptional coactivator YAP1 (Homo sapiens) (UniProt P46937); experiment: Inhibition of YAP1 in human NCI-H1650 cells assessed as suppression of PD-L1 mRNA expression at 5 to 10 uM incubated for 72 hrs by RT-PCR method; format: cell-based
[8] = biological target: Transcriptional coactivator YAP1 (Homo sapiens) (UniProt P46937); experiment: Inhibition of YAP1 in human NCI-H1703 cells assessed as suppression of PD-L1 mRNA expression at 5 to 10 uM incubated for 72 hrs by RT-PCR method; format: cell-based
[9] = biological target: Transcriptional coactivator YAP1 (Homo sapiens) (UniProt P46937); experiment: Inhibition of YAP1 in human NCI-H1650 cells assessed as reduction in Sox2 protein expression at 5 uM by Western blot analysis; format: cell-based
[10] = biological target: Transcriptional coactivator YAP1 (Homo sapiens) (UniProt P46937); experiment: Inhibition of YAP1 in human A549 cells assessed as reduction in Sox2 protein expression at 5 uM by Western blot analysis; format: cell-based
[11] = biological target: Transcriptional coactivator YAP1 (Homo sapiens) (UniProt P46937); experiment: Inhibition of YAP1 in human A549 cells assessed as suppression of CCL2 level by cytokine array assay; format: cell-based
[12] = biological target: Transcriptional coactivator YAP1 (Homo sapiens) (UniProt P46937); experiment: Inhibition of YAP1 in human A549 cells assessed as suppression of CXCL1 level by cytokine array assay; format: cell-based
[13] = biological target: Transcriptional coactivator YAP1 (Homo sapiens) (UniProt P46937); experiment: Inhibition of YAP1 in human A549 cells assessed as suppression of CXCL12 level by cytokine array assay; format: cell-based
[14] = biological target: Transcriptional coactivator YAP1 (Homo sapiens) (UniProt P46937); experiment: Inhibition of YAP1 in human A549 cells assessed as suppression of CD40L level by cytokine array assay; format: cell-based
[15] = biological target: Transcriptional coactivator YAP1 (Homo sapiens) (UniProt P46937); experiment: Inhibition of YAP1 in human A549 cells assessed as suppression of ICAM1 level by cytokine array assay; format: cell-based
[16] = biological target: Transcriptional coactivator YAP1 (Homo sapiens) (UniProt P46937); experiment: Inhibition of YAP1 in human A549 cells assessed as suppression of IL1alpha level by cytokine array assay; format: cell-based
[17] = biological target: Transcriptional coactivator YAP1 (Homo sapiens) (UniProt P46937); experiment: Inhibition of YAP1 in human A549 cells assessed as suppression of IL6 level by cytokine array assay; format: cell-based
[18] = biological target: Transcriptional coactivator YAP1 (Homo sapiens) (UniProt P46937); experiment: Inhibition of YAP1 in human A549 cells assessed as suppression of IL8 level by cytokine array assay; format: cell-based
[19] = biological target: Transcriptional coactivator YAP1 (Homo sapiens) (UniProt P46937); experiment: Inhibition of YAP1 in human A549 cells assessed as suppression of IL13 level by cytokine array assay; format: cell-based
[20] = biological target: Transcriptional coactivator YAP1 (Homo sapiens) (UniProt P46937); experiment: Inhibition of YAP1 in human A549 cells assessed as suppression of IL18 level by cytokine array assay; format: cell-based
[21] = biological target: Transcriptional coactivator YAP1 (Homo sapiens) (UniProt P46937); experiment: Inhibition of YAP1 in human A549 cells assessed as suppression of IL32-alpha level by cytokine array assay; format: cell-based
[22] = biological target: Transcriptional coactivator YAP1 (Homo sapiens) (UniProt P46937); experiment: Inhibition of YAP1 in human A549 cells assessed as suppression of MIF level by cytokine array assay; format: cell-based
[23] = biological target: Transcriptional coactivator YAP1 (Homo sapiens) (UniProt P46937); experiment: Inhibition of YAP1 in human A549 cells assessed as suppression of Serpine-E1 level by cytokine array assay; format: cell-based
[24] = biological target: Transcriptional coactivator YAP1 (Homo sapiens) (UniProt P46937); experiment: Inhibition of YAP1 in human A549 cells assessed as suppression of CCL2 level in presence of cancer associated fibroblasts by cytokine array assay; format: cell-based
[25] = biological target: Transcriptional coactivator YAP1 (Homo sapiens) (UniProt P46937); experiment: Inhibition of YAP1 in human A549 cells assessed as suppression of CXCL12 level in presence of cancer associated fibroblasts by cytokine array assay; format: cell-based
[26] = biological target: Transcriptional coactivator YAP1 (Homo sapiens) (UniProt P46937); experiment: Inhibition of YAP1 in human A549 cells assessed as suppression of ICAM1 level in presence of cancer associated fibroblasts by cytokine array assay; format: cell-based
[27] = biological target: Transcriptional coactivator YAP1 (Homo sapiens) (UniProt P46937); experiment: Inhibition of YAP1 in human A549 cells assessed as suppression of IL6 level in presence of cancer associated fibroblasts by cytokine array assay; format: cell-based
[28] = biological target: Transcriptional coactivator YAP1 (Homo sapiens) (UniProt P46937); experiment: Inhibition of YAP1 in human A549 cells assessed as suppression of IL8 level in presence of cancer associated fibroblasts by cytokine array assay; format: cell-based
[29] = biological target: Transcriptional coactivator YAP1 (Homo sapiens) (UniProt P46937); experiment: Inhibition of YAP1 in human A549 cells assessed as suppression of MIF level in presence of cancer associated fibroblasts by cytokine array assay; format: cell-based
[30] = biological target: Transcriptional coactivator YAP1 (Homo sapiens) (UniProt P46937); experiment: Inhibition of YAP1 in human A549 cells assessed as suppression of Serpine-E1 level in presence of cancer associated fibroblasts by cytokine array assay; format: cell-based

Transcriptional coactivator YAP1 (Homo sapiens), sequence (P46937 whole entry): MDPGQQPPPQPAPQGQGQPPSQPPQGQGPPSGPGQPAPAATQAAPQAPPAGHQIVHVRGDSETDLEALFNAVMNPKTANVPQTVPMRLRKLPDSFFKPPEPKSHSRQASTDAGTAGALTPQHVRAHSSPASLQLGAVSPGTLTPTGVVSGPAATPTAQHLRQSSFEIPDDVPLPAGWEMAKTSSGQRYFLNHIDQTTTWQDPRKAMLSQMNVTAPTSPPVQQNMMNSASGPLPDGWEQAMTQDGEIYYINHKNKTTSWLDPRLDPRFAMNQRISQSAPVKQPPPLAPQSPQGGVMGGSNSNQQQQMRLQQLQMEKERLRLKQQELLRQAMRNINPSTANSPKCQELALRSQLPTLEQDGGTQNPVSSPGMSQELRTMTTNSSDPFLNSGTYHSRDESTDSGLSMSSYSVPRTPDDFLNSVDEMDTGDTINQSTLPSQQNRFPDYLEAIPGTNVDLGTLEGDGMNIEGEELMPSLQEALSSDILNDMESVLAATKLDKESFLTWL

- inhibition [1]: Active
- inhibition [2]: Active
- inhibition [3]: Active
- inhibition [4]: Active
- inhibition [5]: Active
- inhibition [6]: Active
- inhibition [7]: Active
- inhibition [8]: Active
SMILES: COC(=O)[C@H](Cc1ccc(OCc2ccccc2)cc1)NC(=O)CC1CCN(C(=O)CCc2ccc(Cl)c(Cl)c2)CC1
- inhibition (NCI-H1650): Active

- inhibition [9]: Active
- inhibition [10]: Active
- inhibition [11]: Active
- inhibition [12]: Active
- inhibition [13]: Active
- inhibition [14]: Active
- inhibition [15]: Active
- inhibition [16]: Active
- inhibition [17]: Active
- inhibition [18]: Active
- inhibition [19]: Active
- inhibition [20]: Active
- inhibition [21]: Active
- inhibition [22]: Active
- inhibition [23]: Active
- inhibition [24]: Active
- inhibition [25]: Active
- inhibition [26]: Active
- inhibition [27]: Active
- inhibition [28]: Active
- inhibition [29]: Active
- inhibition [30]: Active
SMILES: COC(=O)[C@H](Cc1ccc(OCc2ccccc2)cc1)NC(=O)CC1CCN(C(=O)CCc2ccc(C#N)cc2)CC1
